In ChEMBL document CHEMBL3112482, “Nonclassical antifolates, part 5. Benzodiazepine analogs as a new class of DHFR inhibitors: synthesis, antitumor testing and molecular modeling study” (Eur J Med Chem, 2014) one finds IC50 data, which are given here for 2 compounds.

This assay deals with T1, Dihydrofolate reductase (Bos taurus, UniProt P00376).
T1 sequence (P00376 whole entry): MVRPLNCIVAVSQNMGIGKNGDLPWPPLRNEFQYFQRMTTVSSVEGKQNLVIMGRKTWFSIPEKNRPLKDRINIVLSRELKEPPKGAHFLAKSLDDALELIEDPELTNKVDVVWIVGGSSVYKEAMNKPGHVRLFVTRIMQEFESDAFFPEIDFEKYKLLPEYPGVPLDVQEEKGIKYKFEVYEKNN
Nature of the assay: Inhibition of bovine liver DHFR measured for every 1 min of 10 mins.

The IC50 is the concentration that gives 50% inhibition. Low readings indicate greater potency in that assay, high ones weaker potency in that assay. On to `COc1ccc(/C=C2\CCCC3=C(c4ccc(OC)c(OC)c4)Nc4ccccc4N=C32)cc1OC`, for which half-maximal inhibition (IC50) was put at 60 nM.
The value for `Clc1cc2c(cc1Cl)NC(c1ccc(Br)cc1)=C1CCC/C(=C\c3ccc(Br)cc3)C1=N2` was 100 nM.
